US20130230459A1, “RADIOLABELLED mGluR2 PET LIGANDS” (Janssen Pharmaceuticals, Inc., priority 2010, published 2013)
Values joined by “and” are separate entries in the source; they are usually repeats but may differ in a detail not shown here. Equal entries are not always repeated.

How the values were obtained:
[1] = Biodistribution studies of 11C tracers; assay type: in vivo, Wistar rats; settings: for SUV Blood / SUV Cerebellum / SUV Cerebrum total / SUV Cortex / SUV Hippocampus / SUV Striatum: normalized for body weight;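 as to Total brain uptake: percentage of injected dose (% ID)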
Outline: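 Healthy male Wistar rats (n=3 per time point) received about 11 or 22 MBq tracer i.v. via tail vein under isoflurane; sacrificed at 2, 30 and 60 min p.i. Gamma counting of blood and organs gave %ID and %ID/g, with blood taken as 7% of body mass.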

mGluR2 = molecular target: T1, mGluR2 (Rattus norvegicus, UniProt P31421); experiment: MicroPET imaging: baseline, blocking and chase experiments; assay type: in vivo, Wistar rats; settings: for % reduction of SUV (total brain) due to chase: chase compound B 4 mg/kg i.v.; for SUV (total brain) before chase: maximum SUV; for SUV (total brain) before chase / SUV (total brain) after chase: chase compound B 4 mg/kg i.v. 30 min after tracer; for SUV (total brain) after chase: minimum SUV
T1 construct: from tissue; host or cells: brain of living male Wistar rats (in vivo microPET)
Outline: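 Healthy male Wistar rats under isoflurane; 30-60 MBq [11C]tracer i.v., 90 min dynamic microPET, regional SUV time-activity curves. Self-block: B-4 10 mg/kg s.c. 30 min pre-tracer; chase: i.v. 30 min post-tracer with B-4 3 mg/kg, compound B 4, 1, 0.3 or 0.1 mg/kg, compound A 1 mg/kg or ritanserin 0.3 mg/kg.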

T1 sequence (P31421 19-872): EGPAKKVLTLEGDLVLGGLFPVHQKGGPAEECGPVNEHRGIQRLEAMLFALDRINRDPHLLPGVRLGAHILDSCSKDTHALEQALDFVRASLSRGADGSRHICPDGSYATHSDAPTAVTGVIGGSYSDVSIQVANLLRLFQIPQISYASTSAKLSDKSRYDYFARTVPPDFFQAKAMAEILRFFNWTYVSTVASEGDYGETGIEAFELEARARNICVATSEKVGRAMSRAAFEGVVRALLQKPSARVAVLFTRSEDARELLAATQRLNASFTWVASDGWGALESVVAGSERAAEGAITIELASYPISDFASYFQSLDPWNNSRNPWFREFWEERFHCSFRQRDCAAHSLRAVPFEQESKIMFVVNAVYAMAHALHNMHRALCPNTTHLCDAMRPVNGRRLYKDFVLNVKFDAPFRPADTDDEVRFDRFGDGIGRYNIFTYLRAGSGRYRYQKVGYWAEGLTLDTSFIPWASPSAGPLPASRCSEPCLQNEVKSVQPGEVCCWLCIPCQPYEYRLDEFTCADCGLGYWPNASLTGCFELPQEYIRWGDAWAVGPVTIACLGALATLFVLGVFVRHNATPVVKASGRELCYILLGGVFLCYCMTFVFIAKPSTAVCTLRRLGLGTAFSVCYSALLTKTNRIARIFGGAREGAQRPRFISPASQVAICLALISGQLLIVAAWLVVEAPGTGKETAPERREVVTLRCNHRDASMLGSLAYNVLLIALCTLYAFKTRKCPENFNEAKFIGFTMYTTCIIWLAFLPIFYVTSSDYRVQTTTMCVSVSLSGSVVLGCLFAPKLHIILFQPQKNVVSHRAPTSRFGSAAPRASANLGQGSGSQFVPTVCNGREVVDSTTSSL

## [11CH3]Oc1ccc(F)cc1C1CCN(c2ccn3c(CC4CC4)nnc3c2Cl)CC1 [[^11C]B-4, 8-chloro-3-(cyclopropylmethyl)-7-[4-[5-fluoro-2-[^11C]methoxyphenyl]-1-piperidinyl]-1,2,4-triazolo[4,3-a]pyridine]
[1]; 2 min p.i.
  % ID Blood: 5.6 % ID and 5.6 ± 0.4 % ID
  % ID Carcass: 42.0 ± 2.0 % ID
  % ID Cerebellum: 0.10 % ID and 0.100 ± 0.000 % ID
  % ID Cerebrum total: 0.45 % ID and 0.450 ± 0.029 % ID
  % ID Cortex: 0.092 ± 0.019 % ID
  % ID Heart: 4.1 ± 0.3 % ID
  % ID Hippocampus: 0.010 ± 0.001 % ID
  % ID Intestines: 7.3 ± 0.6 % ID
  % ID Kidneys: 6.4 ± 0.6 % ID
  % ID Liver: 29.9 ± 2.0 % ID
  % ID Lungs: 2.9 ± 0.4 % ID
  % ID Rest of cerebrum: 0.344 ± 0.047 % ID
  % ID Spleen + Pancreas: 1.9 ± 0.2 % ID
  % ID Stomach: 1.5 ± 0.3 % ID
  % ID Striatum: 0.014 ± 0.001 % ID
  % ID Urine: 0.0 ± 0.0 % ID
  Total brain uptake: 0.58 % ID and 0.58 ± 0.0 % ID
  SUV Blood: 0.80 ± 0.01
  SUV Cerebellum: 1.46 and 1.46 ± 0.02
  SUV Cerebrum total: 1.39 ± 0.01
  SUV Cortex: 1.65 ± 0.02
  SUV Hippocampus: 1.04 ± 0.01
  SUV Striatum: 1.46 and 1.46 ± 0.02
[1]; 30 min p.i.
  % ID Blood: 2.8 ± 0.3 % ID
  % ID Carcass: 64.3 ± 5.8 % ID
  % ID Cerebellum: 0.191 ± 0.030 % ID
  % ID Cerebrum total: 0.694 ± 0.117 % ID
  % ID Cortex: 0.165 ± 0.081 % ID
  % ID Heart: 2.5 ± 0.4 % ID
  % ID Hippocampus: 0.026 ± 0.007 % ID
  % ID Intestines: 8.3 ± 2.0 % ID
  % ID Kidneys: 4.0 ± 0.7 % ID
  % ID Liver: 14.2 ± 2.4 % ID
  % ID Lungs: 0.7 ± 0.1 % ID
  % ID Rest of cerebrum: 0.469 ± 0.047 % ID
  % ID Spleen + Pancreas: 1.4 ± 0.2 % ID
  % ID Stomach: 2.1 ± 0.3 % ID
  % ID Striatum: 0.034 ± 0.005 % ID
  % ID Urine: 0.3 ± 0.2 % ID
  Total brain uptake: 0.93 ± 0.2 % ID
  SUV Blood: 0.40 ± 0.01
  SUV Cerebellum: 2.33 ± 0.04
  SUV Cerebrum total: 1.66 ± 0.03
  SUV Cortex: 1.87 ± 0.02
  SUV Hippocampus: 1.57 ± 0.03
  SUV Striatum: 2.31 ± 0.04
[1]; 60 min p.i.
  % ID Blood: 3.3 % ID and 3.3 ± 0.2 % ID
  % ID Carcass: 62.8 ± 2.5 % ID
  % ID Cerebellum: 0.144 ± 0.021 % ID
  % ID Cerebrum total: 0.596 ± 0.128 % ID
  % ID Cortex: 0.097 ± 0.039 % ID
  % ID Heart: 1.3 ± 0.3 % ID
  % ID Hippocampus: 0.021 ± 0.005 % ID
  % ID Intestines: 11.1 ± 0.9 % ID
  % ID Kidneys: 2.9 ± 0.4 % ID
  % ID Liver: 15.4 ± 0.9 % ID
  % ID Lungs: 0.5 ± 0.1 % ID
  % ID Rest of cerebrum: 0.450 ± 0.086 % ID
  % ID Spleen + Pancreas: 1.3 ± 0.2 % ID
  % ID Stomach: 1.6 ± 0.3 % ID
  % ID Striatum: 0.029 ± 0.009 % ID
  % ID Urine: 0.6 ± 0.1 % ID
  % ID present in liver and intestines: 26.5 % ID
  % ID present in the urinary system: 3.5 % ID
  Total brain uptake: 0.76 ± 0.1 % ID
  SUV Blood: 0.50 ± 0.00
  SUV Cerebellum: 1.68 ± 0.04
  SUV Cerebrum total: 1.40 ± 0.03
  SUV Cortex: 1.34 ± 0.02
  SUV Hippocampus: 1.13 ± 0.02
  SUV Striatum: 1.78 ± 0.04
[1]; at all time points examined
  % ID present in the carcass: ~56 % ID
mGluR2; B-4 3 mg/kg i.v. 30 min after tracer
  effect of self-chase on brain radioactivity: significant displacement
mGluR2; B-4 10 mg/kg s.c. 30 min prior to tracer
  effect of self-blocking on brain uptake: lower brain uptake and faster wash-out
mGluR2; baseline scan
  time at which maximum radioactivity concentration in brain is reached: about 9 min p.i.
mGluR2; baseline scan, followed by wash-out
  time until which maximum radioactivity concentration stays constant: about 27 min p.i.
mGluR2
  % reduction of SUV (total brain) due to chase: 70%
  SUV (total brain) before chase: 1.05
  SUV (total brain) after chase: 0.32
mGluR2; concluded from blocking/chase microPET experiments
  character of tracer binding to mGluR2 in vivo: binds reversible and specific to mGluR2

## [11CH3]Oc1cc(F)cc(F)c1C1CCN(c2ccn3c(CC4CC4)nnc3c2Cl)CC1 [[^11C]B-7, 8-chloro-3-(cyclopropylmethyl)-7-[4-[2,4-difluoro-6-[^11C]methoxyphenyl]-1-piperidinyl]-1,2,4-triazolo[4,3-a]pyridine]
[1]; 2 min p.i.
  % ID Blood: 5.4 % ID and 5.4 ± 0.3 % ID
  % ID Carcass: 40 % ID and 39.8 ± 2.8 % ID
  % ID Cerebellum: 0.18 % ID and 0.179 ± 0.043 % ID
  % ID Cerebrum total: 0.53 % ID and 0.529 ± 0.098 % ID
  % ID Cortex: 0.081 ± 0.011 % ID
  % ID Heart: 4.1 ± 0.4 % ID
  % ID Hippocampus: 0.020 ± 0.004 % ID
  % ID Intestines: 8.2 ± 1.1 % ID
  % ID Kidneys: 6.5 ± 0.7 % ID
  % ID Liver: 33.4 ± 2.0 % ID
  % ID Lungs: 1.8 ± 0.7 % ID
  % ID Rest of cerebrum: 0.428 ± 0.084 % ID
  % ID Spleen + Pancreas: 1.3 ± 0.2 % ID
  % ID Stomach: 1.5 ± 0.2 % ID
  % ID Striatum: 0.028 ± 0.008 % ID
  % ID Urine: 0.1 ± 0.0 % ID
  Total brain uptake: 0.75 % ID and 0.75 ± 0.1 % ID
  SUV Blood: 0.80 ± 0.00
  SUV Cerebellum: 1.53 ± 0.03
  SUV Cerebrum total: 1.08 ± 0.02
  SUV Cortex: 1.14 ± 0.03
  SUV Hippocampus: 0.85 ± 0.02
  SUV Striatum: 1.13 ± 0.03
[1]; 30 min p.i.
  % ID Blood: 3.5 ± 0.2 % ID
  % ID Carcass: 64.9 ± 4.2 % ID
  % ID Cerebellum: 0.198 ± 0.026 % ID
  % ID Cerebrum total: 0.718 ± 0.142 % ID
  % ID Cortex: 0.120 ± 0.018 % ID
  % ID Heart: 1.4 ± 0.2 % ID
  % ID Hippocampus: 0.030 ± 0.003 % ID
  % ID Intestines: 10.2 ± 1.5 % ID
  % ID Kidneys: 2.8 ± 0.3 % ID
  % ID Liver: 14.6 ± 1.2 % ID
  % ID Lungs: 0.6 ± 0.1 % ID
  % ID Rest of cerebrum: 0.523 ± 0.117 % ID
  % ID Spleen + Pancreas: 1.2 ± 0.3 % ID
  % ID Stomach: 1.4 ± 0.2 % ID
  % ID Striatum: 0.045 ± 0.014 % ID
  % ID Urine: 0.4 ± 0.1 % ID
  Total brain uptake: 0.93 ± 0.2 % ID
  SUV Blood: 0.50 ± 0.00
  SUV Cerebellum: 2.0 and 2.00 ± 0.03
  SUV Cerebrum total: 1.51 ± 0.03
  SUV Cortex: 1.72 ± 0.05
  SUV Hippocampus: 1.20 ± 0.01
  SUV Striatum: 1.70 ± 0.03
[1]; 60 min p.i.
  % ID Blood: 3.7 % ID and 3.7 ± 0.4 % ID
  % ID Carcass: 61.5 ± 5.7 % ID
  % ID Cerebellum: 0.163 ± 0.011 % ID
  % ID Cerebrum total: 0.543 ± 0.014 % ID
  % ID Cortex: 0.059 ± 0.007 % ID
  % ID Heart: 0.9 ± 0.1 % ID
  % ID Hippocampus: 0.022 ± 0.003 % ID
  % ID Intestines: 13.4 ± 3.3 % ID
  % ID Kidneys: 2.0 ± 0.3 % ID
  % ID Liver: 15.3 ± 2.1 % ID
  % ID Lungs: 0.7 ± 0.1 % ID
  % ID Rest of cerebrum: 0.435 ± 0.004 % ID
  % ID Spleen + Pancreas: 0.9 ± 0.0 % ID
  % ID Stomach: 2.4 ± 0.7 % ID
  % ID Striatum: 0.026 ± 0.007 % ID
  % ID Urine: 0.5 ± 0.2 % ID
  % ID present in liver and intestines: 28.7 % ID
  % ID present in the urinary system: 2.5 % ID
  Total brain uptake: 0.72 ± 0.0 % ID
  SUV Blood: 0.50 ± 0.01
  SUV Cerebellum: 1.50 ± 0.01
  SUV Cerebrum total: 1.19 ± 0.01
  SUV Cortex: 1.10 ± 0.01
  SUV Hippocampus: 0.98 ± 0.01
  SUV Striatum: 1.43 ± 0.01
mGluR2
  % reduction of SUV (total brain) due to chase: 58%
  SUV (total brain) before chase: 1.2
  SUV (total brain) after chase: 0.5
